Results reported in patent US12617770B2, “IRAK inhibitor and preparation method therefor and use thereof” (WUHAN CREATERNA SCIENCE AND TECHNOLOGY CO., LTD., priority 2019, dated 2026).

Assays:
human IRAK4 = biological target: T1, human IRAK4 (Homo sapiens, UniProt Q9NWZ3); test: IRAK4 MSA (Mobility-Shift Assay) at Km concentration of ATP; format: biochemical; conditions: GST-IRAK4 1 nM, ATP 37 μM (Km); read-out: IC50 for inhibiting human IRAK4 activity
T1 construct: purchased Cama (so in the source)
T1 sequence (Q9NWZ3 1-460): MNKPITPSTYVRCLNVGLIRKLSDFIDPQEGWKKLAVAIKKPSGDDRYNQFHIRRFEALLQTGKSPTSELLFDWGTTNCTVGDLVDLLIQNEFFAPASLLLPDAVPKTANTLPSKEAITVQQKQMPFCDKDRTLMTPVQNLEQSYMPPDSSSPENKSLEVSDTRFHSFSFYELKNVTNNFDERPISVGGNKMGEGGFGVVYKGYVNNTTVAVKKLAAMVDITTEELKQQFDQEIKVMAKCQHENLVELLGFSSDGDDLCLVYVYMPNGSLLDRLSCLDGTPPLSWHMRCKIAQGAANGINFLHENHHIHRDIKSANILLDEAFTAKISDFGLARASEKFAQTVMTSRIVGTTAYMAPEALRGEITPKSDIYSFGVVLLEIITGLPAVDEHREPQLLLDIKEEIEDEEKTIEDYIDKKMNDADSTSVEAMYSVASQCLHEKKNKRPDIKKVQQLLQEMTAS
Protocol: A recombinant fusion protein of N-terminal GST (glutathione-S-transferase) and human IRAK4 was used as enzyme (GST-IRAK4, kinase IRAK4 (Cama, CAT No. 09-145)) at a final concentration of 1 nM; ATP (Sigma. CAT No. A7699-1G) was at a final concentration of 37 μM; • the substrates used for the kinase reaction were 5-FAM (5-carboxyfluorescein)-labeled polypeptide (5-FAM-[…]-COOH) and substrate peptide FAM-P8 (GL Biochem, CAT No. 112396) at final concentrations of 5 μM.
In this assay, 500 μM stock solutions of the compounds were prepared in 100% DMSO, and serially 4-fold diluted to the 10th concentration gradient with 100% DMSO, followed by a 10-fold dilution in the compound buffer (50 mM HEPES, pH 7.5, 0.00015% Brij-35) to give intermediate dilutions of the compounds at a final concentration of 10 μM−0.04 nM containing 10% DMSO. 5 μL of the intermediate dilution was transferred into a black 384-well plate.
IRAK4 was diluted to 2.5 nM in the kinase buffer (50 mM HEPES, pH 7.5, 0.00015% Brij-35, 2 mM DTT). 10 μL of the IRAK4 dilution was transferred to the 384-well plate and co-incubated with the compound for 10-15 min.
The substrate and ATP were diluted to 12.5 μM and 92.5 μM with reaction buffer (50 mM HEPES, pH 7.5, 0.00015% Brij-35, 10 mM MgCl2), respectively. 10 μL of the dilution was transferred to a 384-well plate and incubated at 28° C. for 1 h. The reaction was terminated by adding 25 μL of 50 mM EDTA to the 384-well plate.
The inhibition rate of IRAK4 by the compounds was calculated by measuring the rate of phosphorylated substrate using a Caliper EZ Reader (PerkinElmer) and the IC50 was calculated by XL-fit software. […] In particular, some exemplary compound activity values are as follows: […]

[1] = biological target: T2, hERG potassium ion channel (Homo sapiens, UniProt Q12809); test: hERG whole-cell patch clamp in HEK-293 cell line stably expressing hERG; format: cell-based; conditions: HEK-293 cells stably expressing hERG, pH 7.4, HEK-293 cells expressing hERG, mean ± spread
T2 construct: expressed in transfected cells; host or cells: HEK-293
T2 sequence (Q12809 whole entry): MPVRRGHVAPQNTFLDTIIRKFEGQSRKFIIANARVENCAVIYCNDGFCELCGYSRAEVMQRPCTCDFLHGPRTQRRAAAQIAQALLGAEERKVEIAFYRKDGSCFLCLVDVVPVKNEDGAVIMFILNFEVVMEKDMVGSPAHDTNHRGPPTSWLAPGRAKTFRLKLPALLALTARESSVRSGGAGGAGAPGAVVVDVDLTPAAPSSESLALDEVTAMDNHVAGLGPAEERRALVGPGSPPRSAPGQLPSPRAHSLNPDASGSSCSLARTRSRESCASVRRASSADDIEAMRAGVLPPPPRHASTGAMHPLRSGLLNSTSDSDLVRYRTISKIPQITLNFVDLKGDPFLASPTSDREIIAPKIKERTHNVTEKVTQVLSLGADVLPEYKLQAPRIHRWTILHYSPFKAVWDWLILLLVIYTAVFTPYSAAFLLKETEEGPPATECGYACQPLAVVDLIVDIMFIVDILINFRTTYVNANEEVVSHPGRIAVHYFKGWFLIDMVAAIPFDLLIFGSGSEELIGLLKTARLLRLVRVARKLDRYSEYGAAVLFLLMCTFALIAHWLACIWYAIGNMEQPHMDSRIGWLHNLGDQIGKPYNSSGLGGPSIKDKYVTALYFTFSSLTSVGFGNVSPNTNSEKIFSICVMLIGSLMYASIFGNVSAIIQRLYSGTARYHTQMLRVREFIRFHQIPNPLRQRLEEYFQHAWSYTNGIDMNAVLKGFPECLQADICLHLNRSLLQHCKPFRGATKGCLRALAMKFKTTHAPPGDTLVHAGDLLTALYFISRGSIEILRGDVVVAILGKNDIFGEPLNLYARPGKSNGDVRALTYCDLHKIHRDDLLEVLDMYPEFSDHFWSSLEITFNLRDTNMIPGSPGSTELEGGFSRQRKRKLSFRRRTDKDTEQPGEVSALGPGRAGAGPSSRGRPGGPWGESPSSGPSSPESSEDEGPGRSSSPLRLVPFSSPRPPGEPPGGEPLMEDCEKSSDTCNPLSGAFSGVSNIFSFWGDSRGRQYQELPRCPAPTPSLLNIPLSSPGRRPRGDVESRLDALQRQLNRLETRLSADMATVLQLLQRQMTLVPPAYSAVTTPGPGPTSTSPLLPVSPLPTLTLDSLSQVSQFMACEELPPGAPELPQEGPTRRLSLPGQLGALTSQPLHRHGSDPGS
Protocol: The working solutions of the test compounds were ultrasonically treated for 20 min.
Patch clamping: Under an inverted microscope, recording electrodes were controlled by micromanipulator to contact with the cell. A negative voltage was applied to create a G-omega shaped connection. After forming the G-omega shaped connection, a rapid capacitance compensation was given. Under the continuous negative voltage, the cell membrane was ruptured to form a whole-cell recording configuration. In the whole-cell recording configuration, slow capacitance compensation was given, and the values of membrane capacitance and series resistance were recorded. […]
The cover glasses planted with cells were placed in the recording chamber of an inverted microscope. […] The current detected in a cell in the negative control was used as the background for the cell. […]
[formula] Basic statistics were calculated for each concentration, including mean, standard deviation (SD), standard error (SE), and replicates (n). The dose-dependent curve was fitted with the following equation and the half maximal inhibitory concentration (IC50) of the test compounds was calculated: […]

CYP2C9 = biological target: T3, CYP2C9 (Homo sapiens, UniProt P11712); test: CYP450 inhibition in human liver microsomes, CYP2C9; format: in vitro ADME; conditions: pooled (mixed) human liver microsomes, probe diclofenac
T3 construct: co-incubated at 7 concentrations with human liver microsomes and five probe substrates; tissue Corning (USA); host or cells: mixed (pooled) human liver microsomes
T3 sequence (P11712 whole entry): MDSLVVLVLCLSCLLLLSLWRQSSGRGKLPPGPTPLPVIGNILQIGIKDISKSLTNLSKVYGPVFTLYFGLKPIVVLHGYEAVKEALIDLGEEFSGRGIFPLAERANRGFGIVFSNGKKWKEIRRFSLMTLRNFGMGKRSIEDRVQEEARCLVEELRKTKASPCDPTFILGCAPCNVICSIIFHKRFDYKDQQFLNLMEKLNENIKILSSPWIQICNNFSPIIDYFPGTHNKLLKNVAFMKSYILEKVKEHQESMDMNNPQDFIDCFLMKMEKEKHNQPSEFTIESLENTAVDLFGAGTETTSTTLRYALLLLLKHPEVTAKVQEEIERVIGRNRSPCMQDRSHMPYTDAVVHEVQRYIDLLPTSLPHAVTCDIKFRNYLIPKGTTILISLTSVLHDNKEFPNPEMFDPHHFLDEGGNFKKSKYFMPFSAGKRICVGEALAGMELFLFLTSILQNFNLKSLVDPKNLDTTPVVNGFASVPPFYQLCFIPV
Protocol: This study was intended to investigate the inhibitory effect of the test compounds on 5 major enzymes in human P450 superfamily, CYP1A2, 2C9, 2C19, 2D6 and 3A4-M. The mixed human liver microsomes used in this assay were purchased from Corning (USA). The test compound (compound 14) was co-incubated at 7 concentrations with human liver microsomes and five probe substrates (phenacetin for CYP1a2, diclofenac for CYP2C9, mephenytoin for CYP2C19, dextromethorphan for CYP2D6, midazolam for CYP3A4-M, mixed). The reaction was initiated by adding coenzyme NADPH, and terminated by adding acetonitrile containing internal standard. After the proteins were precipitated, the supernatant was centrifuged. The characteristic metabolites in the supernatant (acetaminophen for CYP1A2, 4-hydroxydiclofenac for CYP2C9, 4-hydroxymephenytoin for CYP2C19, dextrorphan for CYP2D6, 1-hydroxymidazolam for CYP3A4-M) were analyzed by LC-MS/MS. The influence of the test compounds on production of the characteristic metabolites was finally analyzed on the basis of the data obtained. A selective inhibitor (ketoconazole for CYP3A4-M) may be used as positive control. All samples were tested in duplicate.

IC50 (human IRAK4) [nM] | IC50 (CYP2C9) [µM] | Structure (SMILES) | inhibition at 5 min, 30 µM [1] [%]
23 | > 30 | COc1cc2nn(CCC(C)(C)O)cc2cc1NC(=O)c1cccc(C)[n+]1[O-] [Compound 163, 2-((2-(3-hydroxy-3-methylbutyl)-6-methoxy-2H-indazol-5-yl)carbamoyl)-6-methylpyridine 1-oxide] | 8.73
6 | > 30 | COc1cc2nn([C@H]3CC[C@](C)(O)CC3)cc2cc1NC(=O)c1cccc(C)[n+]1[O-] [Compound 001, 2-((2-((1r,4r)-4-hydroxy-4-methylcyclohexyl)-6-methoxy-2H-indazol-5-yl)carbamoyl)-6-methylpyridine 1-oxide] | 5.09
